Data on 11 molecules can be found in publication PMC12746157, “Light-Regulated Agonists Spatiotemporally Activating the Vitamin D Receptor Mitigate Psoriasis-like Inflammation in Mice without Inducing Hypercalcemia” (ACS Central Science, 2025).

The structures appear in SMILES notation. Entries after “also recorded” stand apart in the source; their conditions may differ.

Series [1] in a line: Photostationary state (PSS) determination by HPLC-MS in aqueous assay buffer. Format: physicochemical. The settings on record: for PSS365 (% cis) / PSS525 (%trans): 21 °C, HPLC-MS, 60 μM, aqueous buffer 0.6% DMSO; for PSS365 (% cis): 3 min illumination 365 nm; for PSS525 (%trans): 3 min illumination 525 nm. As for the experimental part:
(§1) The UV–vis absorbance spectra of all molecules were measured in the dark and after the application of light of different wavelengths ranging from 365 to 770 nm (Figure A and Figures S1–S3). […] Consequently, violet/UV light below 405 nm efficiently promoted photoisomerization, which produced a dramatic decrease in the π-π* band and a significant increase in the n-π* band at around 445 nm (Table ). […] The proportion of molecules at the PSS in trans isomer upon constant illumination with light at 525 nm and cis at 365 nm was in general above 50%, reaching a remarkable >99% for compound 11d (Table and Figures S4 and S5). […] The greater stability of the trans isomer was consistent with previous quantum mechanical and molecular mechanics predictions. Measuring the photoisomerization properties of compound PhotoVDRM allowed us to determine the photoisomerization quantum yields of the compound by solving a differential equation for photoisomerization. We used MATLAB to perform regression and arrive at the following photoisomerization quantum yields: ϕ365 nm (trans) = 0.0427, ϕ365 nm (cis) = 0.0501, ϕ470 nm (trans) = 0.1857, and ϕ470 nm (cis) = 0.2281 (Figure S9). Compound PhotoVDRM was also evaluated in aqueous buffer used for pharmacological experiments (0.5% DMSO) showing a thermal relaxation of 3 h, almost 7 times faster than in pure DMSO (Figure B). […] A deeper photocharacterization of PhotoVDRM allowed us to measure the kinetics of photoconversion upon constant illumination with two wavelengths and three light intensities (Figure D and Figure S10). […] Indeed, with LED devices producing light at intensities as low as 0.05 mW/mm^2 we were able to transform trans to cis in around 15.5 s. This time was reduced to 6 and 2 s when the light intensity was increased to 0.15 and 0.75 mW/mm^2. […] Therefore, we proceeded to test the ability of the chemical library to activate the VDR under different light conditions.
Photostationary state (PSS) determination. In a transparent vial, solutions of the compounds were prepared at a concentration of 60 µM from a 10 mM stock in DMSO, using the assay buffer of pharmacological experiments for dilution. Prior to illumination, a volume of 500 µL was transferred to an amber vial for the "dark" sample. The same procedure was repeated after exposing the transparent vial containing the 60 µM solutions to the following light conditions:
365nm for 3 minutes and 525nm for 3 minutes. […]
difference on isomeric proportions. For each sample, 20 µL was analyzed by HPLC-MS, and the isomer ratios were determined at the isosbestic point.
Isosbestic point determination. The solvent percentage for the elution of each isomer were calculated based on their retention times from HPLC analysis. Subsequently, 50 µM solutions were prepared from the 10 mM DMSO stock solution of each compound using the previously determined HPLC solvent mixture. The UV spectrum for each solution was recorded after illumination at 365 nm (30 seconds), at 400 nm (30 seconds), and at 525 nm (30 seconds). The spectra were overlaid to identify the isosbestic point of maximum intensity.
HPLC conditions. Analytical HPLC was performed on a Thermo Ultimate 3000SD (Thermo Scientific Dionex) coupled to a PDA detector and Mass Spectrometer LTQ XL ESI-ion trap (Thermo Scientific). Cromatographic separations were performed using a ZORBAX Eclipse Plus C18 (4.6 x 150mm; 3.5µm) column. The mobile phase consisted of an isocratic mixture of solvent A (water with 0.05% of formic acid) and solvent B (acetonitrile with 0.05% formic acid) at a 3:7 ratio for compounds 10a-d and a 2:3 ratio for compounds 11a-d and 12a-d. […]

The nature of series [2]: Thermal relaxation and photoisomerization rates of PhotoVDRM in aqueous assay buffer. Format: physicochemical. The following applies: for photoisomerization rate (τ) trans to cis: 365 nm, aqueous buffer 0.6% DMSO. As for the experimental part: as §1, with “S9).” for “S9). Compound PhotoVDRM was also evaluated in aqueous buffer used for pharmacological experiments (0.5% DMSO) showing a thermal relaxation of 3 h, almost 7 times faster than in pure DMSO (Figure B).”
2 Photochemical characterization of compound PhotoVDRM. (A) UV–vis absorption spectra of compound PhotoVDRM under different light conditions. (B) Half-lifetime estimation of compound PhotoVDRM, absorbance was measured at 365 nm. (C) Multiple cis/trans isomerization cycles (365/460 nm) show the stability of the compound over 6 cycles of light application. (D) Photoisomerization under constant illumination with light at 365 nm (violet shade) and 470 nm (blue shade). Light was applied with a CoolLED pe-4000 at 50% intensity that corresponded to 0.75 mW/mm^2 for the light at 365 nm and 0.56 mW/mm^2 for the light at 470 nm; 10% intensity corresponded to 0.15 mW/mm^2 for the light at 365 nm and 0.12 mW/mm^2 for the light at 470 nm; and 5% intensity corresponded to 0.06 mW/mm^2 for the light at 365 nm and 0.05 mW/mm^2 for the light at 470 nm. The photoisomerization rates (τ) using light at 365 nm were measured as 2, 6, and 15.5 s with 50%, 10% and 5% of intensity. […]

Series [3] deals with IL-23-induced psoriatic-like inflammation. Kind of series: IL-23-induced mouse model of psoriasis (ear thickness). It is filed as in vivo, C57BL/6N mice. The settings on record: days 2-4, i.p. PhotoVDRM 0.5 mg/kg.
Procedure: Each mice was administered interlueukin 23 (IL-23) once a day for a total of 3 days by intradermal injection (i.d.) into one of the mouse ears. Contralateral ear i.d. injected with PBS was used as control. Subsequently, ear thickness was measured daily, by using a digital caliper, as indicative of psoriasis-course progression (Figure A).
(A) Temporal scheme for IL-23-induced mouse model of psoriasis. Animals were treated with IL-23 (i.d.) in the left ear during three consecutive days (days 1, 2 and 3). In addition, a contralateral control was performed consisting of PBS administration in the right ear. At day 2, 3, and 4 animals were previously intraperitoneally (i.p.) administered with vehicle (saline) and drugs (i.e., LSN2148936; 0.005 mg/kg and PhotoVDRM; 0.5 mg/kg). Both ears were irradiated with 420 or 520 nm light at day 2, 3, and 4 during 8 min. […] (C) Inflammatory ear response measurements. Mice ear thickness determination in animals administrated (ip) on days 2, 3, and 4 with vehicle, LSN2148936 or PhotoVDRM treated with 420 or 520 nm light. Each day, ear thickness was measured in millimeters and represented as percentage of ear thickness increase using the first measurement of PBS-administrated ear as control. Data is shown as mean ± SD, n = 5 mice per group. Statistical analysis between PhotoVDRM and vehicle. *P < 0.05 and **P < 0.01 Student’s t test.

As to `Cc1cc(OCC(O)C(C)(C)C)ccc1/N=N/c1cccc(-c2ccc(C(=O)O)cc2C)c1` (centres unmarked) [Compound 11d], in series [1], the “PSS365 (% cis)” value is on record as above 99% and the “PSS525 (%trans)” value is 61%.

As for `Cc1cc(/N=N/c2cccc(-c3ccc(CO)cc3)c2)ccc1OCC(O)C(C)(C)C` (centres unmarked) [Compound 12a], in series [1], the “PSS365 (% cis)” value came out at 80% and the “PSS525 (%trans)” value was determined as 87%.

For `COC(=O)c1ccc(-c2cccc(/N=N/c3ccc(OCC(O)C(C)(C)C)cc3C)c2)c(C)c1` (centres unmarked) [Compound 10d], in series [1], the “PSS365 (% cis)” value is 88% and the “PSS525 (%trans)” value was determined as 81%.

`COC(=O)c1ccc(-c2cccc(/N=N/c3ccc(OCC(O)C(C)(C)C)cc3C)c2)cc1` (centres unmarked) [Compound 10b]: in series [1], the “PSS365 (% cis)” value is recorded as 78% and the “PSS525 (%trans)” value is listed as 73%.

Regarding `COC(=O)c1ccc(-c2cccc(/N=N/c3ccc(OCC(O)C(C)(C)C)c(C)c3)c2)cc1` (centres unmarked) [Compound 10a], in series [1], the “PSS365 (% cis)” value was found to be 83% and the “PSS525 (%trans)” value amounted to 86%.

With `Cc1cc(OCC(O)C(C)(C)C)ccc1N=Nc1cccc(-c2ccc(C(=O)O)cc2)c1` (centres unmarked) [Compound 11b], the “photoisomerization rate (τ) trans to cis” value in series [2] (10% intensity, 0.15 mW/mm^2, 25 °C) is listed as 6 s; in series [2] (50% intensity, 0.75 mW/mm^2, 25 °C), 2 s. For the same molecule, in series [2] (aqueous buffer used for pharmacological experiments (0.5% DMSO)), the thermal relaxation is 3 h. Further, the “thermal relaxation in aqueous buffer, times faster than in pure DMSO” value in series [2] (buffer vs pure DMSO) is listed as around 7 times. Further, the “IL-23-induced ear inflammation (ear thickness)” value in series [3] (420 nm light 8 min) was “significant reduction; also recorded: full antipsoriatic activity”; in series [3] (520 nm light 8 min), “only partially reduces”. Moreover, the “PSS365 (% cis)” value in series [1] is listed as 95%. Moreover, in series [1], the “PSS525 (%trans)” value amounted to 55%. In addition, in series [1] (460 nm, assay buffer (Figure S4D)), the “proportion of cis at PSS 460 nm” value is given as 63%.

With `Cc1cc(/N=N/c2cccc(-c3ccc(C(=O)O)cc3C)c2)ccc1OCC(O)C(C)(C)C` (centres unmarked) [Compound 11c], in series [1], the “PSS365 (% cis)” value was 96% and the “PSS525 (%trans)” value came to 84%.

As to `Cc1cc(OCC(O)C(C)(C)C)ccc1/N=N/c1cccc(-c2ccc(CO)cc2)c1` (centres unmarked) [Compound 12b], in series [1], the “PSS365 (% cis)” value is given as 84% and the “PSS525 (%trans)” value is reported as 84%.

Consider `Cc1cc(OCC(O)C(C)(C)C)ccc1/N=N/c1cccc(-c2ccc(CO)cc2C)c1` (centres unmarked) [Compound 12d], for which, in series [1], the “PSS365 (% cis)” value was 88% and the “PSS525 (%trans)” value is reported as 82%.

On to `Cc1cc(/N=N/c2cccc(-c3ccc(C(=O)O)cc3)c2)ccc1OCC(O)C(C)(C)C` (centres unmarked) [Compound 11a], for which, in series [1], the “PSS365 (% cis)” value was found to be 94% and the “PSS525 (%trans)” value is 74%.

For `COC(=O)c1ccc(-c2cccc(/N=N/c3ccc(OCC(O)C(C)(C)C)c(C)c3)c2)c(C)c1` (centres unmarked) [Compound 10c], in series [1], the “PSS365 (% cis)” value is 73% and the “PSS525 (%trans)” value is 83%.
